Results published in patent US7858647B2, “N-[1,3,4]-thiadiazol-2-yl-benzene sulfonamides, pharmaceutical compositions thereof and methods for their therapeutic use” (Sanofi-Aventis, priority 2005, dated 2010).
Like-named read-outs stand apart in the source and are kept apart here. Each block holds one compound with its values, some of them ahead of it.

Columns and labels:
[1] = two weeks clinical trials in healthy volunteers; cited from earlier work
[2] = cynomolgus monkeys; cited from earlier work
[3] = rhesus monkeys; cited from earlier work
human PPARdelta = target: T1, human PPARdelta (Homo sapiens, UniProt Q03181); assay: Cellular PPARdelta assay (luciferase reporter, stably transfected HEK cell line); type: cell-based; conditions: GR-GAL4-humanPPARdelta-LBD
T1 construct: amino acids S139-Y441; expressed in transfected cells
T1 sequence (Q03181 139-441): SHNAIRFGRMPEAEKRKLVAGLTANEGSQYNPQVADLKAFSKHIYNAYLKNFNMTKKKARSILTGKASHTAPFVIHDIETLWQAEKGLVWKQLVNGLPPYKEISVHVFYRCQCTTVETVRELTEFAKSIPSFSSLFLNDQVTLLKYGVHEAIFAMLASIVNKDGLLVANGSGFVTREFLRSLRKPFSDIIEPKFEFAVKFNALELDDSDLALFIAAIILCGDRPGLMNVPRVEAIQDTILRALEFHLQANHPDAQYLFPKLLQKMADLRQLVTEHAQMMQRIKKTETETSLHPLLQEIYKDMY
Procedure: The activity of PPARalpha agonists is determined in a 3-day assay which is described below:
The PPARalpha reporter cell line is cultivated to 80% confluence in DMEM (#41965-039, Invitrogen) which is mixed with the following additions: 10% cs-FCS (fetal calf serum; #SH-30068.03, Hyclone), 0.5 mg/ml zeocin (#R250-01, Invitrogen), 0.5 mg/ml G418 (#10131-027, Invitrogen), 1% penicillin-streptomycin solution (#15140-122, Invitrogen) and 2 mM L-glutamine (#25030-024, Invitrogen). The cultivation takes place in standard cell culture bottles (#353112, Becton Dickinson) in a cell culture incubator at 37° C. in the presence of 5% CO2. The 80%-confluent cells are washed once with 15 ml of PBS (#14190-094, Invitrogen), treated with 3 ml of trypsin solution (#25300-054, Invitrogen) at 37° C. for 2 min, taken up in 5 ml of the DMEM described and counted in a cell counter. After dilution to 500.000 cells/ml, 35,000 cells are seeded in each well of a 96 well microtiter plate with a clear plastic base (#3610, Corning Costar). The plates are incubated in the cell culture incubator at 37° C. and 5% CO2 for 24 h.
PPARalpha Agonists to be Tested are Dissolved in DMSO in a Concentration of 10 mM. This stock solution is diluted in DMEM (#41965-039, Invitrogen) which is mixed with 5% cs-FCS (#SH-30068.03, Hyclone), 2 mM L-glutamine (#25030-024, Invitrogen) and the previously described antibiotics (zeocin, G418, penicillin and streptomycin). Test substances are tested in 11 different concentrations in the range from 10 μM to 100 pM.
The medium of the PPARalpha reporter cell line seeded on day 1 is completely removed by aspiration, and the test substances diluted in medium are immediately added to the cells. The dilution and addition of the substances is carried out by a robot (Beckman FX). The final volume of the test substances diluted in medium is 100 μl per well of a 96 well microtiter plate. The DMSO concentration in the assay is less than 0.1% v/v in order to avoid cytotoxic effects of the solvent.
The assay plates are incubated in an incubator at 37° C. and 5% CO2 for 24 h.
The PPARalpha reporter cells treated with the test substances are removed from the incubator, and the medium is aspirated off. The cells are lyzed by pipetting 50 μl of Bright Glo reagent (from Promega) into each well of a 96 well microtiter plate. After incubation at room temperature in the dark for 10 minutes, the microtiter plates are measured in the luminometer (Trilux from Wallac). The measuring time for each well of a microtiter plate is 1 sec.
The raw data from the luminometer are transferred into a Microsoft Excel file. Dose-effect plots and EC50 values of PPAR agonists are calculated using the XL.Fit program as specified by the manufacturer (IDBS).
The potency of substances which bind to human PPARdelta and activate it in an agonistic manner is analyzed using a stably transfected HEK cell line (HEK=human embryo kidney) which is referred to here as PPARdelta reporter cell line. In analogy to the assay described for PPARalpha, the PPARdelta reporter cell line also contains two genetic elements, a luciferase reporter element (pdeltaM-GAL4-Luc-Zeo) and a PPARdelta fusion protein (GR-GAL4-humanPPARdelta-LBD) which mediates expression of the luciferase reporter element depending on a PPARdelta ligand. The stably and constitutively expressed fusion protein GR-GAL4-humanPPARdelta-LBD binds in the cell nucleus of the PPARdelta reporter cell line via the GAL4 protein portion to the GAL4 DNA binding motifs 5′-upstream of the luciferase reporter element which is stably integrated in the genome of the cell line. There is only little expression of the luciferase reporter gene in the absence of a PPARdelta ligand if fatty acid-depleted fetal calf serum (cs-FCS) is used in the assay. PPARdelta ligands bind and activate the PPARdelta fusion protein and thereby stimulate expression of the luciferase reporter gene. […]

[4] = obese, insulin resistant rhesus monkeys, cited from earlier work
[5] = diabetic animal model; cited from earlier work

Structure (SMILES): CCCc1c(OCCCSc2nnc(SCC(=O)O)s2)ccc(C(C)=O)c1O [YM-16638]
plasma lipids [1]: acts in a similar manner
plasma lipids [2]: significantly lowers
plasma lipids [3]: significantly lowers

EC50 (human PPARdelta): 46 nM
Structure (SMILES): CCOc1cc(C(F)(F)F)ccc1C(=O)NCCc1ccc(S(=O)(=O)Nc2nnc(C(C)C)s2)cc1 [Example 16, 2-Ethoxy-N-{2-[4-(5-isopropyl-[1,3,4]thiadiazol-2-ylsulfamoyl)-phenyl]-ethyl}-4-trifluoromethyl-benzamide]

Structure (SMILES): Cc1cc(SCc2sc(-c3ccc(C(F)(F)F)cc3)nc2C)ccc1OCC(=O)O [GW501516]
insulin levels ([4]; plasma): decreases
triglycerides ([4]; plasma): decreases
HDL-cholesterol [4]: raises
plasma LDL-cholesterol [4]: decreases

Structure (SMILES): CCCc1c(OCCCOc2ccc(OCC(=O)O)cc2)ccc(C(C)=O)c1O [Example L-165041]
plasma cholesterol [5]: raises
